Assay results from US20080033045A1, “TREATMENT OF PSYCHIATRIC DISORDERS” (Myriad Genetics, Incorporated, priority 2006, published 2008).

Test system: Alzheimer's disease patients
Experiment: Clinical trial in Alzheimer's disease patients, analysis of psychiatric disorder events (MedDRA adverse events)
Format: in vivo, human
Method: A clinical trial with (R)-2-(2-fluoro-4-biphenylyl)propionic acid (USAN name of tarneflurbil) was conducted according to the method disclosed in U.S. patent application Ser. No. 10/889,971, filed Jul. 12, 2004, (US publication no. 20050042284) which is expressly incorporated herein by reference in its entirety. In this clinical trial, Alzheimer's disease patients were treated with placebo, 400 mg tarenflurbil twice daily, or 800 mg tarenflurbil twice daily for one year. Analysis of the psychiatric disorder events yielded the following results.

[1] = 400 mg BID for one year, N = 40
[2] = 800 mg BID for one year, N = 50

## C[C@@H](C(=O)O)c1ccc(-c2ccccc2)c(F)c1 [tarenflurbil, (R)-2-(2-fluoro-4-biphenylyl)propionic acid]
[1]
  Abnormal behaviour, number: 0
  Abnormal dreams, number: 0
  Aggression, number: 0
  Agitation, number: 2
  Agitation, percent of N: (5%)
  Anger, number: 1
  Anger, percent of N: (2.5%)
  Anxiety, number: 2
  Anxiety, percent of N: (5%)
  Apathy, number: 0
  Confusional state, number: 4
  Confusional state, percent of N: (10%)
  Delusion, number: 1
  Delusion, percent of N: (2.5%)
  Depression, number: 1
  Depression, percent of N: (2.5%)
  Hallucination, number: 0
  Hallucination, visual, number: 1
  Hallucination, visual, percent of N: (2.5%)
  Insomnia, number: 0
  Libi do increased, number: 1
  Libi do increased, percent of N: (2.5%)
  Mood altered, number: 0
  Mood swings, number: 1
  Mood swings, percent of N: (2.5%)
  Nightmare, number: 0
  Number of Patients With at Least One Adverse Event (Psychiatric Disorder): 12
  Paranoia, number: 1
  Paranoia, percent of N: (2.5%)
  Patients With at Least One Adverse Event (Psychiatric Disorder), percent of N: (30%)
  Psychotic disorder, number: 1
  Psychotic disorder, percent of N: (2.5%)
  Sleep disorder, number: 1
  Sleep disorder, percent of N: (2.5%)
  Total Number of Adverse Events (Psychiatric Disorders, MedDRA): 17
[2]
  Abnormal behaviour, number: 0
  Abnormal dreams, number: 0
  Aggression, number: 0
  Agitation, number: 1
  Agitation, percent of N: (2%)
  Anger, number: 0
  Anxiety, number: 2
  Anxiety, percent of N: (4%)
  Apathy, number: 0
  Confusional state, number: 0
  Delusion, number: 0
  Depression, number: 4
  Depression, percent of N: (8%)
  Hallucination, number: 0
  Hallucination, visual, number: 0
  Insomnia, number: 1
  Insomnia, percent of N: (2%)
  Libi do increased, number: 0
  Mood altered, number: 1
  Mood altered, percent of N: (2%)
  Mood swings, number: 0
  Nightmare, number: 1
  Nightmare, percent of N: (2%)
  Number of Patients With at Least One Adverse Event (Psychiatric Disorder): 7
  Paranoia, number: 0
  Patients With at Least One Adverse Event (Psychiatric Disorder), percent of N: (14%)
  Psychotic disorder, number: 0
  Sleep disorder, number: 0
  Total Number of Adverse Events (Psychiatric Disorders, MedDRA): 10
Treatment group, statistical analysis, p=0.02
  number of psychiatric events (incidence): reduce the incidence of psychiatric events
Treatment group, statistical analysis, p=0011
  time to progression to psychiatric events (onset): delay the onset of
